Our source for the Kd values is patent US12043632B2, “6-heteroaryloxy benzimidazoles and azabenzimidazoles as JAK2 inhibitors” (Ajax Therapeutics, Inc., priority 2020, dated 2024).

Structures are written as SMILES.

For orientation: Kd means the free concentration of one partner at which half of the binding sites on the other are occupied at equilibrium, for simple one-to-one binding. High values mean lower affinity, low ones higher affinity.

T1 sequence (O60674 849-1124 Y1007F/Y1008F limits assumed): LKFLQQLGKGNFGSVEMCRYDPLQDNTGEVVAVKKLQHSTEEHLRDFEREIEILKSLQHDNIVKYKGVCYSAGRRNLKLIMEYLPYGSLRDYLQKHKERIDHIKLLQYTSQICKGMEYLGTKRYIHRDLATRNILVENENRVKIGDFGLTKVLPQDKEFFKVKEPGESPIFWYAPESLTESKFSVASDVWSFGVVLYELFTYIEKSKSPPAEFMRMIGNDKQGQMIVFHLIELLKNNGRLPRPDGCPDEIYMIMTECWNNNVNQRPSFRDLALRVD

The assay addresses T1, JAK2 (JH1domain-catalytic, Y1007F,Y1008F) kinase (Homo sapiens, UniProt O60674, Y1007F/Y1008F).
T1 construct: JAK2 (JH1domain-catalytic, Y1007F,Y1008F) kinase was expressed as N-terminal fusion; made in house; host or cells: transiently transfected HEK293 cells
As to the kind of experiment: JAK2 JH1 Domain Binding Assay. Conditions: qPCR readout. In general terms: Real-time PCR tracks product formation cycle by cycle.
Turning to `Cn1c(Nc2cc(C(F)(F)F)cn(CCO)c2=O)nc2ncc(Oc3cnn4ccccc34)c(C#N)c21` [Example I-160, 2-((1-(2-hydroxyethyl)-2-oxo-5-(trifluoromethyl)-1,2-dihydropyridin-3-yl)amino)-1-methyl-6-(pyrazolo[1,5-a]pyridin-3-yloxy)-1H-imidazo[4,5-b]pyridine-7-carbonitrile], the Kd is under 10 nM.

Regarding `Cn1cc(-n2cc(C(F)(F)F)cc(Nc3nc4ncc(Oc5cnn6cc(F)ccc56)c(Cl)c4n3C)c2=O)cn1` [Example I-161, 3-((7-chloro-6-((6-fluoropyrazolo[1,5-a]pyridin-3-yl)oxy)-1-methyl-1H-imidazo[4,5-b]pyridin-2-yl)amino)-1-(1-methyl-1H-pyrazol-4-yl)-5-(trifluoromethyl)pyridin-2(1H)-one], the Kd was under 10 nM.

As for `Cn1c(Nc2cc(C(F)(F)F)cn([C@H]3C[C@@H](O)C3)c2=O)nc2ncc(Oc3cnn4cc(F)ccc34)c(Cl)c21` [Example I-162, cis-3-((7-chloro-6-((6-fluoropyrazolo[1,5-a]pyridin-3-yl)oxy)-1-methyl-1H-imidazo[4,5-b]pyridin-2-yl)amino)-1-(3-hydroxycyclobutyl)-5-(trifluoromethyl)pyridin-2(1H)-one], the Kd was under 10 nM.

As to `Cn1c(Nc2cc(C(F)(F)F)cn(CCO)c2=O)nc2ncc(Oc3cnn4cc(F)ccc34)c(Cl)c21` [Example I-163, 3-((7-chloro-6-((6-fluoropyrazolo[1,5-a]pyridin-3-yl)oxy)-1-methyl-1H-imidazo[4,5-b]pyridin-2-yl)amino)-1-(2-hydroxyethyl)-5-(trifluoromethyl)pyridin-2(1H)-one], the dissociation constant Kd was under 10 nM.

`CCn1c(C(C)(C)C)ncc(Nc2nc3ncc(Oc4cnn5ccncc45)c(Cl)c3n2C)c1=O` [Example I-164, 2-(tert-butyl)-5-((7-chloro-1-methyl-6-(pyrazolo[1,5-a]pyrazin-3-yloxy)-1H-imidazo[4,5-b]pyridin-2-yl)amino)-3-ethylpyrimidin-4(3H)-one] displayed a Kd of 10 to 50 nM.

Take `Cn1c(=O)c(Nc2nc3ncc(Oc4cnn5ccncc45)c(Cl)c3n2C)cn(C2CC2)c1=O` [Example I-165, 5-((7-chloro-1-methyl-6-(pyrazolo[1,5-a]pyrazin-3-yloxy)-1H-imidazo[4,5-b]pyridin-2-yl)amino)-1-cyclopropyl-3-methylpyrimidine-2,4(1H,3H)-dione]: the Kd was 1000 to 5000 nM.

`Cn1cc(C(F)(F)F)cc(Nc2nc3ncc(Oc4cnn5ccc(N6CCOCC6)cc45)c(Cl)c3n2C)c1=O` [Example I-166, 3-((7-chloro-1-methyl-6-((5-morpholinopyrazolo[1,5-a]pyridin-3-yl)oxy)-1H-imidazo[4,5-b]pyridin-2-yl)amino)-1-methyl-5-(trifluoromethyl)pyridin-2(1H)-one] gave a Kd of under 10 nM.

`Cn1c(Nc2cc(C(F)(F)F)cn([C@H]3C[C@@H](O)C3)c2=O)nc2ncc(Oc3cnn4ccccc34)c(C#N)c21` [Example I-167, cis-2-((1-(3-hydroxycyclobutyl)-2-oxo-5-(trifluoromethyl)-1,2-dihydropyridin-3-yl)amino)-1-methyl-6-(pyrazolo[1,5-a]pyridin-3-yloxy)-1H-imidazo[4,5-b]pyridine-7-carbonitrile] came in with a Kd of under 10 nM.

For `Cn1c(Nc2cc(C(C)(C)C)n(C3COC3)n2)nc2ncc(Oc3cnn4ccncc34)c(C#N)c21` [Example I-168, 2-((5-(tert-butyl)-1-(oxetan-3-yl)-1H-pyrazol-3-yl)amino)-1-methyl-6-(pyrazolo[1,5-a]pyrazin-3-yloxy)-1H-imidazo[4,5-b]pyridine-7-carbonitrile], the Kd fell in the range of 10 to 50 nM.

`CN1CC[C@H](n2nc(Nc3nc4ncc(Oc5cnn6cc(F)ccc56)c(Cl)c4n3C)cc2C(C)(C)C)C1` [Example I-169, (S)—N-(5-(tert-butyl)-1-(1-methylpyrrolidin-3-yl)-1H-pyrazol-3-yl)-7-chloro-6-((6-fluoropyrazolo[1,5-a]pyridin-3-yl)oxy)-1-methyl-1H-imidazo[4,5-b]pyridin-2-amine] showed a dissociation constant (Kd) of under 10 nM.

As for `CN1CC[C@@H](n2nc(Nc3nc4ncc(Oc5cnn6cc(F)ccc56)c(Cl)c4n3C)cc2C(C)(C)C)C1` [Example I-170], the Kd fell in the range of 10 to 50 nM.

In turn, `CNc1nccn2ncc(Oc3cnc4nc(Nc5cc(C(F)(F)F)cn(-c6cnn(C)c6)c5=O)n(C)c4c3Cl)c12` [Example I-171, 3-((7-chloro-1-methyl-6-((4-(methylamino)pyrazolo[1,5-a]pyrazin-3-yl)oxy)-1H-imidazo[4,5-b]pyridin-2-yl)amino)-1-(1-methyl-1H-pyrazol-4-yl)-5-(trifluoromethyl)pyridin-2(1H)-one] registered a Kd of under 10 nM.

`CN1CCN(c2cc(Nc3nc4ncc(Oc5cnn6ccncc56)c(Cl)c4n3C)cc(C(F)(F)F)c2)CC1` [Example I-172, 7-chloro-1-methyl-N-(3-(4-methylpiperazin-1-yl)-5-(trifluoromethyl)phenyl)-6-(pyrazolo[1,5-a]pyrazin-3-yloxy)-1H-imidazo[4,5-b]pyridin-2-amine] displayed a Kd of under 10 nM.

As for `Cn1c(Nc2ccc(CN3CCC(F)(F)CC3)c(C(F)(F)F)c2)nc2ncc(Oc3cnn4ccncc34)c(Cl)c21` [Example I-173, 7-chloro-N-(4-((4,4-difluoropiperidin-1-yl)methyl)-3-(trifluoromethyl)phenyl)-1-methyl-6-(pyrazolo[1,5-a]pyrazin-3-yloxy)-1H-imidazo[4,5-b]pyridin-2-amine], the Kd fell in the range of 10 to 50 nM.

`Cn1c(Nc2ccc(CN3CCCC(F)(F)C3)c(C(F)(F)F)c2)nc2ncc(Oc3cnn4ccncc34)c(Cl)c21` [Example I-174, 7-chloro-N-(4-((3,3-difluoropiperidin-1-yl)methyl)-3-(trifluoromethyl)phenyl)-1-methyl-6-(pyrazolo[1,5-a]pyrazin-3-yloxy)-1H-imidazo[4,5-b]pyridin-2-amine] gave a Kd of 10 to 50 nM.

With `CO[C@H]1CCN(Cc2ccc(Nc3nc4ncc(Oc5cnn6ccncc56)c(Cl)c4n3C)cc2C(F)(F)F)C1` [Example I-175, (S)-7-chloro-N-(4-((3-methoxypyrrolidin-1-yl)methyl)-3-(trifluoromethyl)phenyl)-1-methyl-6-(pyrazolo[1,5-a]pyrazin-3-yloxy)-1H-imidazo[4,5-b]pyridin-2-amine], the Kd lay within 10 to 50 nM.

Molecule `CO[C@@H]1CCN(Cc2ccc(Nc3nc4ncc(Oc5cnn6ccncc56)c(Cl)c4n3C)cc2C(F)(F)F)C1` [Example I-176, (R)-7-chloro-N-(4-((3-methoxypyrrolidin-1-yl)methyl)-3-(trifluoromethyl)phenyl)-1-methyl-6-(pyrazolo[1,5-a]pyrazin-3-yloxy)-1H-imidazo[4,5-b]pyridin-2-amine] yielded a Kd of under 10 nM.

Molecule `Cn1cc(C(F)(F)F)cc(Nc2nc3ncc(Oc4cnn5ccncc45)c(Cl)c3n2C)c1=O` [Example I-177, 3-((7-chloro-1-methyl-6-(pyrazolo[1,5-a]pyrazin-3-yloxy)-1H-imidazo[4,5-b]pyridin-2-yl)amino)-1-methyl-5-(trifluoromethyl)pyridin-2(1H)-one] had a Kd of under 10 nM.

Regarding `CNc1nccn2ncc(Oc3cnc4nc(Nc5cc(C(F)(F)F)cn(C6CC6)c5=O)n(C)c4c3Cl)c12` [Example I-178, 3-((7-chloro-1-methyl-6-((4-(methylamino)pyrazolo[1,5-a]pyrazin-3-yl)oxy)-1H-imidazo[4,5-b]pyridin-2-yl)amino)-1-cyclopropyl-5-(trifluoromethyl)pyridin-2(1H)-one], the Kd is under 10 nM.

For `CNc1nccn2ncc(Oc3cnc4nc(Nc5cc(C(F)(F)F)cn(-c6cccnc6)c5=O)n(C)c4c3Cl)c12` [Example I-179, 3-((7-chloro-1-methyl-6-((4-(methylamino)pyrazolo[1,5-a]pyrazin-3-yl)oxy)-1H-imidazo[4,5-b]pyridin-2-yl)amino)-5-(trifluoromethyl)-2H-[1,3′-bipyridin]-2-one], the Kd was under 10 nM.

The molecule `Cc1cn(-c2cc(Nc3nc4ncc(Oc5cnn6ccncc56)c(Cl)c4n3C)cc(C(F)(F)F)c2)cn1` [Example I-180, 7-chloro-1-methyl-N-(3-(4-methyl-1H-imidazol-1-yl)-5-(trifluoromethyl)phenyl)-6-(pyrazolo[1,5-a]pyrazin-3-yloxy)-1H-imidazo[4,5-b]pyridin-2-amine] had a Kd of under 10 nM.

Turning to `CO[C@H]1CCN(Cc2cc(Nc3nc4ncc(Oc5cnn6ccncc56)c(Cl)c4n3C)cc(C(F)(F)F)c2)C1` [Example I-181, (S)-7-chloro-N-(3-((3-methoxypyrrolidin-1-yl)methyl)-5-(trifluoromethyl)phenyl)-1-methyl-6-(pyrazolo[1,5-a]pyrazin-3-yloxy)-1H-imidazo[4,5-b]pyridin-2-amine], the Kd is under 10 nM.

Regarding `CO[C@@H]1CCN(Cc2cc(Nc3nc4ncc(Oc5cnn6ccncc56)c(Cl)c4n3C)cc(C(F)(F)F)c2)C1` [Example I-182, (R)-7-chloro-N-(3-((3-methoxypyrrolidin-1-yl)methyl)-5-(trifluoromethyl)phenyl)-1-methyl-6-(pyrazolo[1,5-a]pyrazin-3-yloxy)-1H-imidazo[4,5-b]pyridin-2-amine], the Kd is under 10 nM.

As to `Cn1c(Nc2cc(C(F)(F)F)cn(CCO)c2=O)nc2ncc(Oc3cnn4ccc(N5CCOCC5)cc34)c(Cl)c21` [Example I-183, 3-((7-chloro-1-methyl-6-((5-morpholinopyrazolo[1,5-a]pyridin-3-yl)oxy)-1H-imidazo[4,5-b]pyridin-2-yl)amino)-1-(2-hydroxyethyl)-5-(trifluoromethyl)pyridin-2(1H)-one], the Kd was under 10 nM.

`CNc1nccn2ncc(Oc3cnc4nc(Nc5ccc(CN6CCC(F)(F)C6)c(C(F)(F)F)c5)n(C)c4c3Cl)c12` [Example I-184] came in with a Kd of 50 to 1000 nM.

In the case of `Cn1c(Nc2cc(C(C)(C)C)n(C3CC4(COC4)C3)n2)nc2ncc(Oc3cnn4ccncc34)c(C#N)c21` [Example I-187, 2-((5-(tert-butyl)-1-(2-oxaspiro[3.3]heptan-6-yl)-1H-pyrazol-3-yl)amino)-1-methyl-6-(pyrazolo[1,5-a]pyrazin-3-yloxy)-1H-imidazo[4,5-b]pyridine-7-carbonitrile], the equilibrium dissociation constant (Kd) lay within 10 to 50 nM.
